In patent publication EP0786470A1, “PEPTIDE COMPOUND” (SEIKAGAKU KOGYO KABUSHIKI KAISHA, priority 1993, dated 1997):
Where two headings read alike, the source gives them in different places. Where a SMILES comes first, the peptide text is derived from it. [ ]: non-standard residue; d: D form. The star is where a group is joined. Piv = CC(C)(C)C(=O)*; GABA = NCCCC(=O)O

Tests used:
[1] = tested on: Wistar rats; details: for number of spontaneous behavior: caudate nucleus putamen administration
Description: (§1) Wistar rats (250 to 300 g) were anesthetized with pentobarbital (50 mg/kg, i.p.) and their parietal regions were shaved off and the head was respectively fixed on a rat brain fixing apparatus. After incising the scalp, a hole of 1 to 1.2 mm was made in the cranial bones using an electric drill, and a stainless steel guide cannula of 1 to 1.2 mm in diameter and 23 mm in length was inserted into the hole and fixed to the cranial bones with dental cement. As the insertion position of the guide cannula, co-ordinates of tonsillar nucleus (A: -1.3 mm, L: 3.4 mm and V: 8.6 mm from bregma) were selected with reference to the brain illustrations of Paxions and Watson. Rats were reared for 1 week after the operation and then used in the test.
(§2) Drug-free physiological saline containing 13% ethanol (vehicle) was used as a control in the same manner.

[2] = tested on: male Wistar rats; assay: Inhibition of (±) Bay K8644-induced spontaneous behavior and rearing, drug administered to caudate nucleus putamen (Test Example 3); format: in vivo, rat; details: caudate nucleus putamen administration; for number of spontaneous behavior: induced by (±) Bay K8644 (18.5 µmol/ml), in comparison with the control group (Fig. 5); for inhibition action on number of spontaneous behavior / number of rearing: induced by (±) Bay K8644; for inhibition action on number of spontaneous behavior: compared with PLG (Fig. 5); for number of rearing: compared with PLG (Fig. 6)
Description: At the same time, the number of rearing was counted. The term rearing as used herein means an action to stand upright solely with hind legs, which is counted by the naked eye.
The number of spontaneous behavior is shown in Fig. 5, and the number of rearing in Fig. 6, both induced by (±) Bay K8644.

[3] = tested on: Wistar rats; details: for inhibition of the total number of spontaneous behavior observed within 2 hours after administration of methamphetamine: rat, in vivo; for number of spontaneous behavior: tonsillar nucleus administration, 10 µmol/ml at 2.7 µl/min for 2 minutes, after 30 minutes of methamphetamine 1.0 mg/kg i.p., control about 1,250 counts
Description: as §1, §2

[4] = after 30 minutes of methamphetamine 1.0 mg/kg i.p.

Row | Compound | number of spontaneous behavior [1, 4] | number of spontaneous behavior [2] | inhibition action on number of spontaneous behavior [2] | number of rearing [2] | inhibition of the total number of spontaneous behavior observed within 2 hours after administration of methamphetamine [3] | number of spontaneous behavior [3] | number of spontaneous behavior ([1]; 10 µmol/ml at 2.7 µl/min for 2 minutes, after 15 minutes of methamphetamine 1.0 mg/kg i.p.) | number of spontaneous behavior ([1]; after 75 minutes of methamphetamine 1.0 mg/kg i.p.) | site selectivity ([1]; caudate nucleus putamen versus tonsillar nucleus administration)
1 | CC(C)C[C@H](NC(=O)[C@H](CO)NC(=O)C(C)(C)C)C(=O)NCCCC(=O)O [PSLG, Piv-L-Ser-Leu-GABA] (Piv-Ser-Leu-[GABA]-OH) | about 600 counts | decreased | stronger than that of PLG | definitely strong inhibition effect in comparison with PLG | about 25% | about 900 counts |  |  | 
2 | CC(C)C[C@H](NC(=O)C(C)(C)C)C(=O)NCCCC(=O)O [PLG, Piv-Leu-GABA, reference compound] | about 600 counts | decreased |  |  |  | about 750 counts | about 650 counts |  | 
3 | CC(C)C[C@H](NC(=O)[C@@H](CO)NC(=O)C(C)(C)C)C(=O)NCCCC(=O)O [PDSLG, Piv-D-Ser-Leu-GABA] (Piv-[dS]-Leu-[GABA]-OH) |  | decreased | stronger than that of PLG | definitely strong inhibition effect in comparison with PLG | about 25% | about 820 counts |  | about 300 counts | stronger action on caudate nucleus putamen
